Entries after “also recorded” stand apart in the source; their conditions may differ.
What was measured:
[1] = biological target: T1, LIF/LIFR complex (Homo sapiens, UniProt P42702); test: Alpha Screen inhibition of LIFR/LIF binding (cell-free); details: for effect on LIF/LIFR complex formation (LIFR antagonism), in words: cell-free Alpha Screen; for IC50: cell-free, LIFR 4.5 nM, biotinylated LIF 9 nM, read-out: LIFR IC50 AlphaScreen (inhibition of LIFR/LIF binding)
T1 construct: purchased Sino Biological (LIFR); R&D Systems (LIF)
T1 sequence (P42702 45-833 limits assumed): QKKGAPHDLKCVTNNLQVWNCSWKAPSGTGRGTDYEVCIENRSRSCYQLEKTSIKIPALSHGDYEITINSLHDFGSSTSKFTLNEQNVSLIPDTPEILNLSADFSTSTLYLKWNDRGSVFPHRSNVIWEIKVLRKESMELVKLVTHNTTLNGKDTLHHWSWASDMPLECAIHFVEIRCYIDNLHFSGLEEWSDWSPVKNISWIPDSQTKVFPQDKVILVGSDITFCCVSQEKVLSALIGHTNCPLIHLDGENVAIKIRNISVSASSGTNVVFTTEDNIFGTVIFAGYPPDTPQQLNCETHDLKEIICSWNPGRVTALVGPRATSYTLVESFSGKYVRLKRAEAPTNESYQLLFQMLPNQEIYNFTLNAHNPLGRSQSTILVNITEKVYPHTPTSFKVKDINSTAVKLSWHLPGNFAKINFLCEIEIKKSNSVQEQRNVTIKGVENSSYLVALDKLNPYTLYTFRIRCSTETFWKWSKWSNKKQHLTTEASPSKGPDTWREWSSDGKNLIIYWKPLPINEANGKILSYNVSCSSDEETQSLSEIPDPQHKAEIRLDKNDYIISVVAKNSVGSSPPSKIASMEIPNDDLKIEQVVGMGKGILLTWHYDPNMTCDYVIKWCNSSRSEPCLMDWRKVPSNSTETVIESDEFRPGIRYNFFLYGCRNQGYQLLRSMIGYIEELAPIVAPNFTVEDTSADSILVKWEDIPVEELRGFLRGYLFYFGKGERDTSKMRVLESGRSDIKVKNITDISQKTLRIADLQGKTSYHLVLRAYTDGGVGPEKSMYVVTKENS
Description: Recombinant human LIFR (His Tag) and biotinylated recombinant human LIF were purchased from Sino Biologicals (Sino Biological Europe GmbH, Dusseldorf, Germany) and R&D Systems (Abingdon, UK), respectively, and both were reconstituted as required by the manufacturer. […] The assay was carried out in white, low-volume, 384-well AlphaPlates (PerkinElmer, Waltham, MA, USA) using a final volume of 25 µL and an assay buffer containing 25 mM Hepes (pH 7.4), 100 mM NaCl, and 0.005% Kathon. The concentration of DMSO in each well was maintained at 5%. […] Then, LIF was added (biotinylated, final concentration 9 nM), and the samples were incubated for 15 min prior to adding His-Tag acceptor beads (final concentration 20 ng/µL) for 30 min. Then, streptavidin donor beads were added (final concentration 20 ng/µL), and the plate was incubated in the dark for 2 h and then read in an EnSpire Alpha multimode plate reader (PerkinElmer, Waltham, MA, USA).

[2] = system: MIA PaCa-2 cells; test: Scratch wound healing assay; format: cell-based, human; details: LIF 10 ng/mL alone; 0, 24, 48 h
Description: MIA PaCa-2 cells were seeded in DMEM complete medium at […] cells/well into 24-well plate and used at 70-80% confluence rate. The assay was performed as previously described ([20]), particularly on the day 1, the cell monolayers were gently scraped vertically with a new 0.2 mL pipette tip across the centre of the well. After scratching, the well was gently washed twice with PBS (Euroclone, Milan, Italy) to remove the detached cells and cell debris and finally fresh medium containing LIF (10 ng/mL) alone or in combination with BAR502 (10 µM) or EC359 (25 nM) was added into each well. Immediately after scratch creation, the 24-plate was placed under a phase-contrast microscope and the first image of the scratch acquired (T0) with using a OPTIKAM Pro Cool 5 – 4083.CL5 camera. Cells were grown for additional 48 h and images taken at 24h (T1) and 48 h (T2). The gap distance between scarps borders was quantified by assessing that area between the two margins of the scratches. All experiments were performed in triplicate.

| Molecule | effect on LIF/LIFR complex formation (LIFR antagonism), in words [1] | IC50 [1] [µM] | reduction of the scratch area (wound closure) [2] |
| --- | --- | --- | --- |
| C[C@H](CCC(=O)O)[C@H]1CC[C@H]2[C@@H]3[C@H](O)C[C@@H]4C[C@H](O)CC[C@]4(C)[C@H]3CC[C@]12C [CDCA, Chenodeoxycholic acid] | slight, thought significant, inhibitory effect; also recorded: weak LIFR antagonists | 48 | – |
| C[C@H](CCC(=O)O)[C@H]1CC[C@H]2[C@@H]3CC[C@@H]4C[C@H](O)CC[C@]4(C)[C@H]3CC[C@]12C [LCA, Lithocholic acid] | slight, thought significant, inhibitory effect; also recorded: weak LIFR antagonists | 48.3 | – |
| Leukemia Inhibitory factor [LIF] | – | – | ≈ 16% |

Source: PMC10043345, “Discovery of BAR502, as potent steroidal antagonist of leukemia inhibitory factor receptor for the treatment of pancreatic adenocarcinoma” (Frontiers in Oncology, 2023)
